According to patent US11993640B2, “Treating inflammatory lung disease” (United States Government as represented by the Department …, priority 2019, dated 2024):
Read-outs that look alike come from different tables or passages of the source. Non-standard residues stand in square brackets, D forms with d. Residues, ends and D or L forms follow the SMILES beside them. *: point of attachment. Phenylacetyl(2,3,4,5,6-F5) = O=C(Cc1c(F)c(F)c(F)c(F)c1F)*; Phe(F5) = N[C@@H](Cc1c(F)c(F)c(F)c(F)c1F)C(=O)O; hArg = N=C(N)NCCCC[C@H](N)C(=O)O; 12Ado = NCCCCCCCCCCCC(=O)O; Nle = CCCC[C@H](N)C(=O)O; Orn = NCCC[C@H](N)C(=O)O; Abu = CC[C@H](N)C(=O)O; PhAc = O=C(Cc1ccccc1)*

What was measured:
[1] = molecular target: T1, membrane GHRH-receptors on human anterior pituitary cells (Homo sapiens, UniProt Q02643); assay: Competitive receptor binding, displacement of 125I-[His1,Nle27]-hGH-RH(1-32)NH2 from human pituitary membranes
T1 construct: Human pituitary was purchased from the National Hormone and Peptide Program; tissue National Hormone and Peptide Program; host or cells: human pituitary membrane fractions
T1 sequence (Q02643 23-423): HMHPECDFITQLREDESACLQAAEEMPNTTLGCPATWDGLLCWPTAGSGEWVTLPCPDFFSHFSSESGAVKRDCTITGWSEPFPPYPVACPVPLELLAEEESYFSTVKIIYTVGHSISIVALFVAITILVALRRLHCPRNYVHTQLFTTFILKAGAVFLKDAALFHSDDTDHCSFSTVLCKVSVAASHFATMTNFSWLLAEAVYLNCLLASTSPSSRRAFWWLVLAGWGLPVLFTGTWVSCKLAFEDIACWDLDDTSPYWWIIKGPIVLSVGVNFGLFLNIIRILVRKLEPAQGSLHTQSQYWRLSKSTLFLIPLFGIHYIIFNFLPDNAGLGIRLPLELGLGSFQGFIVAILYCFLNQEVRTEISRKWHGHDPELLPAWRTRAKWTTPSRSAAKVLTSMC
Summary of the method: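 Membrane fractions from human pituitary; peptides displace 125I-[His1,Nle27]-hGH-RH(1-32)NH2. IC50 is the dose giving 50% inhibition of specific binding, from duplicate tubes. Relative affinity is the ratio of test IC50 to hGH-RH(1-29)NH2 IC50.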

[2] = test system: HCC1806 cells; assay: In vitro cell viability, breast cancer HCC1806; type: cell-based, human; conditions: 5 μM, 72 h
Protocol: The inhibitory effects of the various synthesized GHRH antagonists were tested in cell proliferation assays in various human cancer cell lines including stomach cancer (KATOIII, N87), colon cancer (HT-29), urothelial cancer (J82, RT4), pancreatic cancer (PANC-1, CFPAC-1), prostatic cancer (PC3), breast cancer (MX-1, HCC1806), ovarian cancer (SK-OV-3, OVCAR-3) and lung cancer (HCC827, H460).
Cell culture. Human cancer cell lines including pancreatic (PANC-1 and CFPAC-1), lung (HCC827 and H460), stomach (NCI-N87 and KATOIII), urothelial (J82, RT4), prostatic (PC3), breast (MX-1 and HCC 1806), colorectal (HT-29), and ovarian (SK-OV-3 and OVCAR-3) were obtained from the American Type Culture Collection (ATCC) and cultured at 37° C. in a humidified 95% air/5% CO2 atmosphere in the medium recommended by ATCC.
In vitro cell viability. Cell viability was analyzed as follows: cancer cells including pancreatic (PANC-1 and CFPAC-1), lung (HCC827 and H460), stomach (NCI-N87 and KATOIII), urothelial (J82, RT4), prostatic (PC3) and breast (MX-1 and HCC 1806), colorectal (HT-29) and ovarian (SK-OV-3 and OVCAR-3) were grown on 96 well plates to ˜60% confluence, the cells were starved for 24 h in culture medium containing 0.5% FBS. Cells were then treated with GHRH antagonists MIA602 AVR compounds at concentrations of 1, 2.5 or 5 μM, or vehicle (0.1% DMSO) in quintuplicates for 72 hours. The medium was replaced every 48 hours. Cell viability was measured using CellTiter 96 aqueous one solution kit (Promega). Inhibitory effects of tested AVR compounds in comparison to that of MIA602 are presented as inhibitory potency.
Inhibitory effects of selected AVR compounds in comparison to that of MIA602 are presented as inhibitory potency (e.g., percentage of inhibition). […] The cell lines tested including lung cancer HCC827 (FIG. 2A), pancreatic cancer CFPAC-1 (FIG. 2B), stomach cancer N87 (FIG. 2C), colon cancer HT-29 (FIG. 2D), breast cancers MX-1 and HCC1806 (FIGS. 2E, F). Based on the results of cell proliferation assay after cancer cells were treated with antagonist at concentration of 5 μM for 72H, the relative inhibitory potency of AVR antagonists in comparison to MIA-602 is summarized in Table 3 A and B. Over 60 AVR compounds were tested in 12 cancer cell lines.
Based on the results of cell proliferation assay after cancer cells were treated with antagonist at concentration of 5 µM for 72H, * at concentration of 2 µM for 72 H.

| SMILES | IC50 [1] [nM] | In vitro relative inhibitory potency in comparison to MIA-602, HCC-1806 ([2]; Table 3B) | Relative inhibitory potency, Breast HCC1806 ([2]; relative to MIA602 = 1, Table 3A) | IC50 ([1]; human anterior pituitary membranes, mean of two to three determinations, read-out: IC50) [nM] |
| --- | --- | --- | --- | --- |
| CCCC[C@H](NC(=O)[C@@H](NC(=O)[C@H](CC(=O)O)NC(=O)[C@H](CCC(N)=O)NC(=O)[C@H](CC(C)C)NC(=O)[C@H](CC(C)C)NC(=O)[C@H](CCCN)NC(=O)[C@H](Cc1c[nH]cn1)NC(=O)[C@H](C)NC(=O)[C@H](CO)NC(=O)[C@H](CC(C)C)NC(=O)[C@H](CCC(N)=O)NC(=O)[C@H](CC)NC(=O)[C@H](CC(C)C)NC(=O)[C@@H](NC(=O)[C@H](CCCN)NC(=O)[C@H](Cc1c[nH]cn1)NC(=O)[C@H](Cc1ccc(OC)cc1)NC(=O)[C@H](CCCCNC(=N)N)NC(=O)[C@H](C)NC(=O)[C@@H](NC(=O)[C@H](Cc1c(F)c(F)c(F)c(F)c1F)NC(=O)[C@@H](NC(=O)[C@H](C)NC(=O)[C@H](CC(=O)O)NC(=O)[C@@H](CCCNC(=N)N)NC(=O)[C@H](Cc1ccc(O)cc1)NC(=O)CCCCCCCCCCCNC(=O)Cc1ccccc1)[C@@H](C)CC)[C@@H](C)O)C(C)C)[C@@H](C)CC)C(=O)N[C@H](CCCNC(=N)N)C(=O)N[C@@H](CCCCNC(=N)N)C(N)=O [MIA-602, PhAC-Ada, Tyr D-Arg, Asp, Ala, Ile, 5FPhe, Thr, Ala, Har, Tyr(Me), His, Orn, Val, Leu, Abu, Gin, Leu, Ser, Ala, His, Orn, Leu, Leu, Gin, Asp, Ile, Nle, D-Arg, Har NH2, reference compound] ({PhAc-12Ado}-Y[dR]DAI[Phe(F5)]TA[hArg]Y(Me)H[Orn]VL[Abu]QLSAH[Orn]LLQDI[Nle][dR][hArg]-NH2) | 0.27 | 1 | 1 | – |
| CCCC[C@H](NC(=O)[C@@H](NC(=O)[C@H](CC(=O)O)NC(=O)[C@H](CCC(N)=O)NC(=O)[C@H](CC(C)C)NC(=O)[C@H](CC(C)C)NC(=O)[C@H](CCCCN)NC(=O)[C@H](CCCNC(=N)N)NC(=O)[C@H](C)NC(=O)[C@H](CO)NC(=O)[C@H](CC(C)C)NC(=O)[C@H](CCC(N)=O)NC(=O)[C@H](CC)NC(=O)[C@H](CC(C)C)NC(=O)[C@@H](NC(=O)[C@H](CCCCN)NC(=O)[C@H](CCCNC(=N)N)NC(=O)[C@H](Cc1ccc(OC)cc1)NC(=O)[C@H](CCCCNC(=N)N)NC(=O)[C@H](C)NC(=O)[C@@H](NC(=O)[C@H](Cc1c(F)c(F)c(F)c(F)c1F)NC(=O)[C@@H](NC(=O)[C@H](C)NC(=O)[C@H](CC(=O)O)NC(=O)[C@@H](CCCNC(=N)N)NC(=O)[C@H](Cc1ccc(O)cc1)NC(=O)CCCCCCCCCCCNC(=O)Cc1c(F)c(F)c(F)c(F)c1F)[C@@H](C)CC)[C@@H](C)O)C(C)C)[C@@H](C)CC)C(=O)N[C@H](CCCNC(=N)N)C(=O)N[C@@H](CCCCNC(=N)N)C(=O)NC [AVR-235] ({Phenylacetyl(2,3,4,5,6-F5)-12Ado}-Y[dR]DAI[Phe(F5)]TA[hArg]Y(Me)RKVL[Abu]QLSARKLLQDI[Nle][dR][hArg]-NHMe) | – | – | – | 0.49 |
